# Like-named read-outs stand apart in the source and are kept apart here.
# Assays:
# CD73 [1] = target: T1, CD73 (Homo sapiens, UniProt P21589); assay type: biochemical; details: 1 mM NaH2PO4 in enzyme buffer, final AMP 15 uM, final CD73 0.3 nM
# T1 construct: purchased R&D system
# T1 sequence (P21589 27-549): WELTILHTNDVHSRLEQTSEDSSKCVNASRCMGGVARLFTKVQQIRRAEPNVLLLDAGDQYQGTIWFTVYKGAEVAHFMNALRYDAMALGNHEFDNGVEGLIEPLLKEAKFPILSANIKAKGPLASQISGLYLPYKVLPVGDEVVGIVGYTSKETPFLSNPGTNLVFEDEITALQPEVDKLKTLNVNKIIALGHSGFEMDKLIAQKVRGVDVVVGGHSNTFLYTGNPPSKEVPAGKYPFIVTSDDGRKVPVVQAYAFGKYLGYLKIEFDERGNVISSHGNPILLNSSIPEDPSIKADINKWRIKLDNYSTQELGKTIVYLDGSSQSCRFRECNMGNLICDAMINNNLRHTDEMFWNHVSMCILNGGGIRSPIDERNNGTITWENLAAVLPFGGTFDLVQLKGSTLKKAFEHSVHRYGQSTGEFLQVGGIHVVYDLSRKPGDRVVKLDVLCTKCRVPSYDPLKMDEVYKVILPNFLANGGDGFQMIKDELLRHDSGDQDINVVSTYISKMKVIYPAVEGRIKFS
# CD73 [2] = target: T1, CD73; test: CD73 Biochemical IC50 Assay; details: final AMP 15 uM, final CD73 0.3 nM, 25 mM Tris pH 7.4, 5 mM MgCl2, no phosphate
# Method: CD73 Biochemical IC50 Assay
# Compound serial dilutions were pre-spotted into Thermo Nunc assay plate. 50 μL CD73 enzyme buffer (CD73 purchased from R&D system=0.6 nM, 25 mM Tris, pH 7.4, 5 mM MgCl2) was added into the assay plate and incubated for 15 mins. […] The samples were run using Rapid fire.
# [3] = target: T2, CD73 activity in MDA-MB-231-GFP cells (Homo sapiens, UniProt P21589); test: MDA-MB-231 Cell Based CD73 Activity Assay (DMEM); details: 3000 cells per well, DMEM medium with 10% human plasma, overnight compound treatment, AMP 200 uM
# T2 construct: endogenous in cells; host or cells: MDA-MB-231-GFP cells
# T2 sequence (P21589 27-549): T1 sequence (P21589 27-549)
# [4] = target: T2, CD73 activity in MDA-MB-231-GFP cells; test: MDA-MB-231 Cell Based CD73 Activity Assay; details: 10000 cells per well, RPMI medium with 10% human plasma, overnight compound treatment, AMP 200 μM
# Method: MDA-MB-231 Cell Based CD73 Activity Assay
# MDA-MB-231-GFP cells were seeded in 384-well plates (Greiner 781946) at a density of 10000 cells per well in 50 μL of RPMI medium with 10% HP (human plasma). Cells were plated into assay plate with compounds pre-spotted, for an overnight compound treatment. 50 μL of 400 μM AMP (final concentration 200 μM) using a Bio-tek dispenser. Plates were incubated for 100 mins. […] The samples were run using Rapid fire.
IC50 (CD73 [1]),IC50 (CD73 [2]),EC50 [3],EC50 [4],SMILES
0.93 nM,9.38 nM,4.71 nM,2.04 nM,"O=c1[nH]cc(-c2cc([C@@H]3C[C@H]3c3ccc(F)c(F)c3)c3nccn3n2)c(=O)[nH]1 (racemic) [Example 33, 5-(8-((1S,2S)-2-(3,4-difluorophenyl)cyclopropyl)imidazo[1,2-b]pyridazin-6-yl)pyrimidine-2,4(1H,3H)-dione and 5-(8-((1R,2R)-2-(3,4-difluorophenyl)cyclopropyl)imidazo[1,2-b]pyridazin-6-yl)pyrimidine-2,4(1H,3H)-dione]"
1.37 nM,10.7 nM,5.84 nM,2.45 nM,"N#Cc1cccc([C@H]2C[C@@H]2c2cc(-c3c[nH]c(=O)[nH]c3=O)nn3ccnc23)c1 [Example 50, 3-((1S,2S)-2-(6-(2,4-dioxo-1,2,3,4-tetrahydropyrimidin-5-yl)imidazo[1,2-b]pyridazin-8-yl)cyclopropyl)benzonitrile]"
